Results as given in ChEMBL document CHEMBL5724914, “Linking interpersonal differences in gut microbiota composition and drug biotransformation activity” (2024).

Experiments:
[1] = human gut metagenome, 24 h, 2 µM
[2] = The drug is tested on WLS-370 corresponding to human gut metagenome with ENA study accession number: PRJEB37062 and ENA sample accession number: ERS12561793 for biotransformation under anaerobic condition. The drug concentrations were measured over 9 timepoints collected between 0 and 24 hours of incubation by liquid-chromatography-coupled mass spectrometry (LC–MS); details: 2 µM
[3] = human gut metagenome, 24 h, 2 µM; remark: listed apart in the source
[4] = human gut metagenome, 24 h, 2 µM; remark: listed apart in the source
[5] = human gut metagenome, 24 h, 2 µM; remark: listed apart in the source
[6] = human gut metagenome, 24 h, 2 µM; remark: listed apart in the source
[7] = The drug is tested on WLS-052 corresponding to human gut metagenome with ENA study accession number: PRJEB37062 and ENA sample accession number: ERS12561747 for biotransformation under anaerobic condition. The drug concentrations were measured over 9 timepoints collected between 0 and 24 hours of incubation by liquid-chromatography-coupled mass spectrometry (LC–MS); details: 2 µM
[8] = human gut metagenome, 24 h, 2 µM; remark: listed apart in the source
[9] = The drug is tested on WLS-010 corresponding to human gut metagenome with ENA study accession number: PRJEB37062 and ENA sample accession number: ERS12561743 for biotransformation under anaerobic condition. The drug concentrations were measured over 9 timepoints collected between 0 and 24 hours of incubation by liquid-chromatography-coupled mass spectrometry (LC–MS); details: 2 µM
[10] = human gut metagenome, 24 h, 2 µM; remark: listed apart in the source
[11] = human gut metagenome, 24 h, 2 µM; remark: listed apart in the source
[12] = The drug is tested on Z-001 corresponding to mouse gut metagenome with ENA study accession number: PRJEB37062 and ENA sample accession number: ERS12561801 for biotransformation under anaerobic condition. The drug concentrations were measured over 9 timepoints collected between 0 and 24 hours of incubation by liquid-chromatography-coupled mass spectrometry (LC–MS); details: 2 µM
[13] = The drug is tested on WLS-077 corresponding to human gut metagenome with ENA study accession number: PRJEB37062 and ENA sample accession number: ERS12561750 for biotransformation under anaerobic condition. The drug concentrations were measured over 9 timepoints collected between 0 and 24 hours of incubation by liquid-chromatography-coupled mass spectrometry (LC–MS); details: 2 µM
[14] = The drug is tested on Z-007 corresponding to rat gut metagenome with ENA study accession number: PRJEB37062 and ENA sample accession number: ERS12561807 for biotransformation under anaerobic condition. The drug concentrations were measured over 9 timepoints collected between 0 and 24 hours of incubation by liquid-chromatography-coupled mass spectrometry (LC–MS); details: 2 µM
[15] = The drug is tested on Z-014 corresponding to rat gut metagenome with ENA study accession number: PRJEB37062 and ENA sample accession number: ERS12561814 for biotransformation under anaerobic condition. The drug concentrations were measured over 9 timepoints collected between 0 and 24 hours of incubation by liquid-chromatography-coupled mass spectrometry (LC–MS); details: 2 µM
[16] = human gut metagenome, 24 h, 2 µM; remark: listed apart in the source
[17] = human gut metagenome, 24 h, 2 µM; remark: listed apart in the source
[18] = The drug is tested on Z-026 corresponding to metagenome with ENA study accession number: PRJEB37062 and ENA sample accession number: ERS12561825 for biotransformation under anaerobic condition. The drug concentrations were measured over 9 timepoints collected between 0 and 24 hours of incubation by liquid-chromatography-coupled mass spectrometry (LC–MS); details: 2 µM
[19] = The drug is tested on WLS-086 corresponding to human gut metagenome with ENA study accession number: PRJEB37062 and ENA sample accession number: ERS12561752 for biotransformation under anaerobic condition. The drug concentrations were measured over 9 timepoints collected between 0 and 24 hours of incubation by liquid-chromatography-coupled mass spectrometry (LC–MS); details: 2 µM
[20] = human gut metagenome, 24 h, 2 µM; remark: listed apart in the source
Also: call rule not given here.

Row | SMILES | Bacterial Biotransformation [1] | Bacterial Biotransformation [2] | Bacterial Biotransformation [3] | Bacterial Biotransformation [4] | Bacterial Biotransformation [5] | Bacterial Biotransformation [6] | Bacterial Biotransformation [7] | Bacterial Biotransformation [8] | Bacterial Biotransformation [9] | Bacterial Biotransformation [10] | Bacterial Biotransformation [11] | Bacterial Biotransformation [12] | Bacterial Biotransformation [13] | Bacterial Biotransformation [14] | Bacterial Biotransformation [15] | Bacterial Biotransformation [16] | Bacterial Biotransformation [17] | Bacterial Biotransformation [18] | Bacterial Biotransformation [19] | Bacterial Biotransformation [20]
1 | CCOc1ccccc1OCCN[C@H](C)Cc1ccc(OC)c(S(N)(=O)=O)c1.Cl [TAMSULOSIN HYDROCHLORIDE] | Compound NOT metabolized | Compound NOT metabolized | Compound NOT metabolized | Compound NOT metabolized | Compound NOT metabolized | Compound NOT metabolized | Compound NOT metabolized | Compound metabolized | Compound NOT metabolized | Compound NOT metabolized | Compound metabolized | Compound NOT metabolized | Compound NOT metabolized | Compound NOT metabolized | Compound NOT metabolized | Compound metabolized | Compound NOT metabolized | Compound NOT metabolized | Compound metabolized | Compound NOT metabolized
2 | COc1cc2nc(N3CCN(C(=O)C4CCCO4)CC3)nc(N)c2cc1OC (stereo not given) [TERAZOSIN] | Compound NOT metabolized | Compound NOT metabolized | Compound NOT metabolized | Compound metabolized | Compound metabolized | Compound NOT metabolized | Compound NOT metabolized | Compound metabolized | Compound NOT metabolized | Compound metabolized | Compound metabolized | Compound NOT metabolized | Compound NOT metabolized | Compound NOT metabolized | Compound NOT metabolized | Compound metabolized | Compound metabolized | Compound NOT metabolized | Compound metabolized | Compound NOT metabolized
3 | c1ccc2[nH]c(-c3cscn3)nc2c1 [THIABENDAZOLE] | Compound NOT metabolized | Compound NOT metabolized | Compound NOT metabolized | Compound metabolized | Compound NOT metabolized | Compound NOT metabolized | Compound NOT metabolized | Compound NOT metabolized | Compound NOT metabolized | Compound NOT metabolized | Compound metabolized | Compound NOT metabolized | Compound NOT metabolized | Compound NOT metabolized | Compound NOT metabolized | Compound NOT metabolized | Compound NOT metabolized | Compound NOT metabolized | Compound metabolized | Compound NOT metabolized
4 | CCN(CC)CCNC(=O)c1cc(S(C)(=O)=O)ccc1OC [TIAPRIDE] | Compound NOT metabolized | Compound NOT metabolized | Compound NOT metabolized | Compound metabolized | Compound metabolized | Compound NOT metabolized | Compound NOT metabolized | Compound NOT metabolized | Compound NOT metabolized | Compound metabolized | Compound metabolized | Compound metabolized | Compound NOT metabolized | Compound NOT metabolized | Compound NOT metabolized | Compound metabolized | Compound NOT metabolized | Compound NOT metabolized | Compound NOT metabolized | Compound NOT metabolized
5 | CC(C)(C)NC[C@H](O)COc1nsnc1N1CCOCC1.O=C(O)/C=C\C(=O)O [TIMOLOL MALEATE] | Compound NOT metabolized | Compound NOT metabolized | Compound NOT metabolized | Compound NOT metabolized | Compound NOT metabolized | Compound NOT metabolized | Compound NOT metabolized | Compound NOT metabolized | Compound NOT metabolized | Compound NOT metabolized | Compound NOT metabolized | Compound NOT metabolized | Compound NOT metabolized | Compound NOT metabolized | Compound NOT metabolized | Compound NOT metabolized | Compound NOT metabolized | Compound NOT metabolized | Compound NOT metabolized | Compound NOT metabolized
6 | CC[C@@]1(O)C(=O)OCc2c1cc1n(c2=O)Cc2cc3c(CN(C)C)c(O)ccc3nc2-1 [TOPOTECAN] | Compound NOT metabolized | Compound NOT metabolized | Compound NOT metabolized | Compound NOT metabolized | Compound NOT metabolized | Compound NOT metabolized | Compound NOT metabolized | Compound NOT metabolized | Compound NOT metabolized | Compound NOT metabolized | Compound NOT metabolized | Compound NOT metabolized | Compound NOT metabolized | Compound NOT metabolized | Compound NOT metabolized | Compound NOT metabolized | Compound NOT metabolized | Compound NOT metabolized | Compound NOT metabolized | Compound NOT metabolized
